Test results taken from PMC2800189, “β-Neurexin Is a Ligand for the Staphylococcus aureus MSCRAMM SdrC” (PLoS Pathogens, 2010).
pKd: −log10 of the molar value.

How the values were obtained:
[1] = target: T1, SdrCN2N3 (Staphylococcus aureus, UniProt O86487); assay: Fluorescence polarization inhibition by unlabeled peptides of SdrCN2N3 binding to fluorescein-labeled spNrxwt; set-up: species or system S. aureus; conditions: 0.5 µM SdrCN2N3 with unlabeled peptide 3 hours, then 3 hours with 10 nM labeled spNrxwt, room temperature; mean±SD, three experiments
T1 construct: Increasing concentrations of SdrC178-496 were incubated with 10 nM labeled peptide; His tag (N); made in house; host or cells: E. coli Topp 3
Experimental: After 3 hours, the mixture was incubated for another 3 hours at room temperature in the dark with 10 nM fluorescein labeled spNrxwt peptide. Fluorescence polarization was determined as described above. The values represented here are the mean±SD of triplicates from three experiments.
To eliminate the possibility that the binding was dependent of the fluorescein label introduced in the wild-type peptide, we tested the ability of unlabeled spNrxwt and spNrxscr to inhibit the binding of SdrCN2N3 to fluorescein-labeled spNrxwt. Increasing concentrations of unlabeled peptides were incubated with SdrCN2N3 for three hours at room temperature before the fluorescent polarization experiment was performed.
For inhibition assays, 0.5 µM SdrC178–496 was first incubated with increasing concentrations of unlabeled Nrxwt or unlabeled Nrxscr for 3 hours at room temperature. The mixture was then incubated for 3 hours with fluorescein-labeled Nrxwt. The results presented represent the mean±SD of three independent experiments.

[2] = target: T1, SdrCN2N3; format: binding, S. aureus; conditions: 10 nM fluorescein-labeled peptide, 3 hours, room temperature, dark
Experimental: We used fluorescence polarization to determine the dissociation constant for the SdrCN2N3-Nrx1β peptide interaction. spNrxwt and spNrxscr were labeled with fluorescein and incubated with increasing concentrations of recombinant MSCRAMM.
Increasing concentrations of SdrCN2N3 or ClfBN2N3 (black circle) were incubated with 10 nM fluorescein-labelled spNrxwt peptide (black square) or spNrxscr peptide (black triangle) for 3 hours at room temperature in the dark. Equation ΔP = ΔPmax [protein]/(KD+[protein]) was used to calculate the equilibrium constant. […] After 3 hours, the mixture was incubated for another 3 hours at room temperature in the dark with 10 nM fluorescein labeled spNrxwt peptide. Fluorescence polarization was determined as described above. […]
Increasing concentrations of SdrC178-496 were incubated with 10 nM labeled peptide for 3 hours in the dark at room temperature. Polarization was measured using Luminescence Spectrometer LB50B (Perkin Elmer). The data were analyzed by non-linear regression for one binding site. The equilibrium dissociation constant was calculated using the equation ΔP = ΔPmax x [protein])/(KD + [protein]) (Eq.1) where ΔP is the change in fluorescence polarization, ΔPmax is the maximum change in fluorescence polarization and KD is the equilibrium dissociation constant of the interaction.

[3] = system: SdrCN2N3 - Nrx47-255 interaction; assay: Peptide inhibition of SdrCN2N3 binding to immobilized Nrx47-255; set-up: species or system S. aureus (SdrC); conditions: 0.5 µM SdrCN2N3 with increasing peptide, 2 hours, room temperature, then on immobilized Nrx47-255; mean±SD of triplicates from three experiments
Experimental: Figure 3 Structural organization of β-neurexins. (A) A cartoon representation of β-neurexin domain structure. S, signal sequence; NL, neuroligin-binding domain; Glyc, glycosylation domain; TM, transmembrane domain; PDZ, intracellular signaling domain. Also shown, are the recombinant proteins used in this study. (B) Coomassie-stained SDS-PAGE gel of GST-tagged neurexin 1β domains recombinant proteins. Increasing concentrations of SdrCA (C) and SdrCN2N3 (D) were incubated with immobilized Nrx47-255 (black square), Nrx70–255 (black triangle) or GST (black circle) for 1 hour at room temperature. […] (E) SdrC178–496 (0.5 µM) was incubated with increasing concentrations of spNrxwt peptide (black square) or spNrxscr peptide (black triangle) at room temperature. After 2 hours, the mixture was incubated with immobilized Nrx47–255. […]
Each well of Immulon 4BH plates was coated with 1 µg of recombinant Nrx47–255-GST, Nrx70–255-GSTor GST overnight at 4°C. […] Bound protein was detected with a polyclonal antibody (1∶3000) against SdrCN2N3 (H.T.I. BioProducts) followed by an anti-rabbit HRP-labeled antibody (1∶5000) (Bio-Rad Labs, Hercules, CA). Color development was performed using SigmaFast OPD (Sigma, St. Louis, MO) and the binding was measured using a microtiter plate reader (Molecular Devices) at 450 nm. […] The binding was analyzed by non-linear regression for one binding site (GraphPad Prism).

[4] = Phage display panning with immobilized SdrGN2N3 or BSA, total bound TUs; format: binding; conditions: input phage 1.5×10^11, 1 µg/well
Text: Analysis of peptides or protein segments displaced on the surface of phage is a useful method to identify partners in protein-protein interaction systems,[17],[18],[19]. To determine if this method can be used to identify ligands for MSCRAMMs from Gram-positive bacteria, we performed a validation experiment using SdrGN2N3 as bait in a screen of a commercially available 12-mer linear library (New England Biolabs Ph.D.-12 Phage Display Peptide Library). We carried out three successive rounds of panning against immobilized SdrGN2N3. To confirm that the enrichment of the phage clones between panning rounds was the result of specific interactions, the phage pool before and after each step of amplification was also tested for binding to BSA. […] We then sequenced the DNA purified from ten phage plaques obtained after the third round of panning.
NEB Ph.D.12-mer random library was incubated with immobilized SdrC N2N3, SdrG N2N3 or BSA at 1 µg/well. The input was 1.5×10^11 transducing units with a complexity of 2.7×10^9 electroporated sequences. The assay was performed according to the manufacturer's instructions. The output phage plaques were 10^4 transducing units. Wells were washed with 0.5% Tween in TBS buffer, blocked with 10% BSA and incubated with 1×10^8 transducing units of each amplified phage or insertless phage (fd-tet). To remove unbound phage, wells were washed 10 times with 0.5% Tween in TBS. Bound phage was detected with anti-M13-HRP antibody (GE Healthcare, Buckinghamshire, UK).

[5] = target: Nrx_(47-255)-GST, recombinant neurexin 1β fragment (human) (UniProt P58400); assay: ELISA; solid phase binding assay: 1 µg/well Nrx-GST protein or GST coated on Immulon 4BH plates, increasing concentrations of SdrC protein, 1 hour at room temperature, detected with anti-SdrC_(N2N3) serum; apparent KD (concentration for half maximum binding)
[6] = target: fluorescein-labeled spNrxwt (human); assay: fluorescence polarisation; increasing concentrations of MSCRAMM with 10 nM fluorescein-labelled peptide, 3 hours at room temperature in the dark; one-site fit

SdrC N2N3 domain, recombinant SdrC_(178-496), sequence (O86487 178-496 limits assumed): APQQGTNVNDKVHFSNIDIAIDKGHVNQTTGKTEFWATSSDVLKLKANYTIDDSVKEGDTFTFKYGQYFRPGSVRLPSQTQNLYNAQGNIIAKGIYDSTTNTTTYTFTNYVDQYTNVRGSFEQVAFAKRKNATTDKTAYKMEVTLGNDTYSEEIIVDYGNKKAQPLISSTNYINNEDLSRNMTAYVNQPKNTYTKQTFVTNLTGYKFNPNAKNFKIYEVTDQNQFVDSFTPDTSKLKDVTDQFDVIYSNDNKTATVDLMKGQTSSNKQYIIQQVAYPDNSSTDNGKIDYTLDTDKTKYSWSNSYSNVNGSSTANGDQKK
T1 sequence (O86487 178-496): as the sequence (O86487 178-496 limits assumed) above
Nrx_(47-255)-GST, recombinant neurexin 1β fragment (human), sequence (P58400 47-255): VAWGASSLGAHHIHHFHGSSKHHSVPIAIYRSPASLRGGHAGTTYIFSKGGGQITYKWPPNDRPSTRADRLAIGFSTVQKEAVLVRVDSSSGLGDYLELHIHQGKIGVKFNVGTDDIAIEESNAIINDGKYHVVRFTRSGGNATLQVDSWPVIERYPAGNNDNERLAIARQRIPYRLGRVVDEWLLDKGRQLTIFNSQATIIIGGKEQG
SdrC A-region, recombinant SdrC_(52-496), sequence (O86487 52-496 limits assumed): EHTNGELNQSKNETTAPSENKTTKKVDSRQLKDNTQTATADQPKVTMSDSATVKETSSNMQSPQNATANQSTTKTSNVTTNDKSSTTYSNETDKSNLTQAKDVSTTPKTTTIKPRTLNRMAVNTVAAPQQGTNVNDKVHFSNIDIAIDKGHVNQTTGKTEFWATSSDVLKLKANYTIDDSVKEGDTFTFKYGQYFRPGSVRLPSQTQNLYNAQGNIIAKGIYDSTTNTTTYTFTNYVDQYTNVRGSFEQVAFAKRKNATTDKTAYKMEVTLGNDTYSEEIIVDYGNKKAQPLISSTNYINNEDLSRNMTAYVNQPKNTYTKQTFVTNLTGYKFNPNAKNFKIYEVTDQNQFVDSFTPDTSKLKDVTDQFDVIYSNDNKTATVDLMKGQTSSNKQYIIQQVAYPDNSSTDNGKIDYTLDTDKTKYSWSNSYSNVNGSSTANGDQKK

In the case of HSHIKLHSHGHSFGHA [spNrxscr], the “inhibition of SdrCN2N3 binding to fluorescein-labeled spNrxwt” value [1] was “but not the spNrxscr inhibited”, the “binding to SdrCN2N3 by fluorescence polarization” value [2] was “did not detect a significant binding” and the “inhibition of SdrCN2N3-Nrx47-255 binding” value [3] was “did not observe an inhibition”.

In the case of “SdrG: fibrinogen-binding MSCRAMM of Staphylococcus epidermidis, N2N3 domain used as bait”, the “Total bound TUs” value ([4]; panning 1) was 4×10^5 TUs, the “Total bound TUs” value ([4]; panning 2) was 3×10^7 TUs and the “Total bound TUs” value ([4]; panning 3) was 2×10^8 TUs.

Substance “SdrC A-region, recombinant SdrC_(52-496) (from UniProt O86487 52-496) (domain or fragment)” has a pKd [5] of 6.73.

In the case of “SdrC N2N3 domain, recombinant SdrC_(178-496) (from UniProt O86487 178-496) (domain or fragment)”, the pKd [6] was 6.60 and the pKd [5] was 6.90.
